# Results from patent US10106577B2, “Agonists of neurotrophin receptors and their use as medicaments” (BIONURE FARMA, S.L., priority 2010, dated 2018).
# B1: G-CSF: positive control (2 μg/ml) in the in vitro model of ALS (protein, UniProt P09919 31-207, looked up)
# Granulocyte …: TPLGPASSLPQSFLLKCLEQVRKIQGDGAALQEKLVSECATYKLCHPEELVLLGHSLGIPWAPLSSCPSQALQLAGCLSQLHSGLFLYQGLLQALEGISPELGPTLDTLQLDVADFATTIWQQMEELGMAPALQPTQGAMPAFASAFQRRAGGVLVASHLQSFLEVSYRVLRHLAQP
# Columns and labels:
# [1] = PAMPA model of passive BBB permeability; format: in vitro ADME; details: PAMPA; passive transport; pH 7.4; 18 hrs; read-out: Effective permeability (pe), PAMPA
# Procedure: PAMPA is used as an in vitro model of passive BBB permeability. An artificial membrane immobilized on a filter is placed between a donor and acceptor compartment. At the start of the test, a drug is introduced in the donor compartment. Following the permeation period, the concentration of the drug in the donor and acceptor compartments are measured using UV spectroscopy. Therefore the permeability of any compound with a UV chromophore can be determined by this method.
# The tested compound stock solutions were diluted 200-fold in universal buffer at pH 7.4 and added to the donor wells. The filter membrane was coated with PBL in dodecane and the acceptor well was filled with pH 7.4 buffer. The acceptor filter plate was carefully put on the donor plate to form a ‘sandwich’ (consisting of the aqueous donor with test the compound on the bottom, an artificial lipid membrane in the middle, and an aqueous acceptor on the top). The test compound diffused from the donor well through the lipid membrane and into the acceptor well. The ‘sandwich’ was left undisturbed for 18 hrs while the permeation occurred. The concentration of the test compound in the acceptor, the donor, and the reference wells was determined using the UV plate reader. Effective permeability (Pe) of each compound was calculated by using the pION PSR4p software. Samples were analyzed in triplicate and the average of the three runs was reported. Quality control standards were run with each sample set to monitor the consistency of the analysis set.
# PC12 cells [2] = assay: Signalling inhibition assays (PC12 differentiation with LY294002 or PD98059); format: cell-based
# Procedure: To evaluate if the transduction pathway induced by G79, G80, and G81 involves AKT and ERK activation, PC12 cell were treated with the test compounds in the presence of LY294002, an inhibitor of PI3K (an upstream activator of AKT) and PD98059, an inhibitor of MAPK kinase (an upstream activator of ERK). For this purpose, PC12 cells were plated into collagen-coated 24-wells plates with 2.5% FBS and after 72 hrs the cells were treated with the small molecules in combination with LY294002 (Sigma Aldrich, 10 μM) or PD98059 (Sigma Aldrich, 50 μM). NGF (100 ng/ml) was used as control and added alone or in combination with the inhibitors.
# PC12 cells [3] = assay: Secretagogue activity assay (PC12 differentiation with antibody anti-NGF); format: cell-based
# Procedure: To assess if the tested compounds, G79, G80, and G81, act as secretagogues, inducing neurotrophic activity through the synthesis of NGF, PC12 cells were plated into collagen-coated 24-wells plates with only 2.5% FBS and after 72 hrs the cells were treated with the tested compounds (each one at 100 ng/ml) together with antibody anti-NGF (1 μg/ml, AbCam). After three days of treatment, the differentiation was evaluated. The cell count was done in three randomly selected fields with 100 cells.
# PC12 cells [4] = assay: Dose response differentiation assay in PC12 cell line; format: cell-based; details: 100 ng/ml; after 3 days of treatment
# Procedure: Stock of PC12 cultures were maintained in Ham's F12 medium supplemented with 2.5% fetal bovine serum (FBS), 15% of horse serum (HS) and 1% penicillin/streptomycin. The cell culture was maintained in 5% CO2 at 37° C.
# PC12 cell differentiation was assessed by treating the cells with all the test compounds (G79, G80, and G81) at different testing concentration (2-20-100 ng/ml and 2-20-50 μg/ml). The cells were first plated into collagen-coated 24-wells plates with 2.5% FBS in the medium to be de-differentiated. After 72 hrs, the test compounds were added and NGF (Sigma Aldrich; 100 ng/ml) as positive control of differentiation. The number of differentiated cells, with neurite processes greater than two cell bodies in length, is counted after 3 days of treatment. The cell count is done in three randomly selected fields with 100 cells.
# PC12 cells [5] = assay: Receptor activation assay (PC12 differentiation with anti-TrkA antibody); format: cell-based
# Procedure: The hypothesis that G79, G80, and G81 can act through the binding to the extracellular portion of TrkA (binding site) and activate the tyrosine kinase receptor was tested by treating the PC12 cells with the small chemicals in combination with the antibody anti-TrkA or the K252a, a tyrosine kinase inhibitor. For this purpose PC12 cells were plated into collagen-coated 24-wells plates with 2.5% FBS and after 72 hrs were incubated with the small molecules alone or in combination with anti-TrkA antibody (AbCam, 1:2000) or K252a. NGF (100 ng/ml) was used as control and added alone or in combination with anti-TrkA antibody or K252a. The number of differentiated cells was evaluated after three days of treatment. The cell count was done in three randomly selected fields with 100 cells.
# PC12 cells [6] = assay: Synergistic activity assay (PC12 differentiation in combination with NGF); format: cell-based; details: NGF alone 100 ng/ml
# Procedure: To evaluate if the small molecules G79, G80, and G81 interfere with the maximal activity of NGF or lead to additive effects, PC12 cells were plated into collagen-coated 24-wells plates with 2.5% FBS and treated after 72 h with the small chemicals (each one at 100 ng/ml) in combination with NGF at the concentration of 100 ng/ml. In the same experiment PC12 cells were treated with the small molecules or NGF alone, as controls. The number of differentiated cells was evaluated after three days of treatment. The cell count was done in three randomly selected fields with 100 cells.
# [7] = test system: retinal ganglion cells (RGC); assay: Glaucoma model, count of retinal ganglion cells; format: in vivo, Sprague Dawley rats; details: first experiment; eye drops, NGF 200, G79 200 and 400 μg/ml
# Procedure: 12 Sprague Dawley rats (4 months of age) were anesthetized with […] and subjected to hypertonic saline solution injection into the episcleral vein of the right eye. Intraocular pressure (IOP) was measured before the operation and was monitored one time a week using a TonoLab for 7 weeks. Treatment with G79 was begun one week after glaucoma induction by topical application at the conjunctive. Two different experiments were performed.
# In the first experiment, G79 was dissolved into physiological solution and was used at two different concentration (200 μg/ml and 400 μg/ml). NGF was used as positive control (200 μg/ml) and the physiological solution, used to dissolve all the molecules, was subministered as placebo. The animals were divided into 4 groups (3 animals in each group): glaucoma-G79 200 μg/ml; glaucoma-G79 […]; glaucoma-NGF; glaucoma-placebo. The left eye was used as the control without glaucoma. In both experiments, seven weeks after glaucoma induction, animals were sacrificed by overdose of anaesthetic and their eyes were taken and fixed in 4% of PFA. The eyes were included in paraffin and cut into 20 μm sections to be used for histological studies (hematoxilin-eosin staining). The cell count of the number of retinal ganglion cells (RGC) was performed randomly in ten different fields for each eye.
# Rats were injected with a hypertonic solution in the eye that induced high intraocular pressure for five weeks. Animals were treated with eye drops of NGF ([…]), G79 ([…]) or placebo every day for five weeks. Animals with glaucoma and treated with placebo (saline) have a significant decrease in the number of retinal ganglion cells compared with control.
# In the second experiment, G79 at the concentration of 200 μg/ml was used. The objective of this second experiment was to compare the efficacy of G79 to Timolol, the most common therapy for glaucoma that works by decreasing the intraocular pressure. Also in this experiment, a combination treatment with G79 and Timolol was performed. […]
# NSC-34 cells = assay: In vitro model of ALS, serum deprivation of motoneuron-like cells (MTT); format: cell-based, mouse; details: G-CSF 2 μg/ml; serum deprivation 48 h
# Procedure: Mouse motoneuron-like cells NCS-34 were cultured in DMEM (Gibco) supplemented with 10% heat inactivated FBS and 1% penicillin/streptomycin. The cell culture was maintained in a humidified atmosphere of 95% air and CO2 at 37° C.
# The nutritional deprivation stress in motorneurons was conducted as described previously in Masahito T. et al., J. Neuropathol. Exp. Neurol. 65(8):816-825 (2006). To assess the effect of trophic stress condition on ALS, the presence of apoptosis was investigated using serum deprivation. NSC-34 cells were seeded in 24-well poly-lysinated plates at 30,000 cells/well and preincubated for 24 h in DMEM plus 10% FBS with various doses of G79, G80, and G81 (20 ng/ml, 100 ng/ml, 2 μg/ml, 20 μg/ml, 50 μg/ml), and G-CSF (2 μg/ml) or BDNF (20 ng/ml) which both were used as positive controls (Masahito T. et al., ibid; Elliot J. L., Neurobiology of Disease 6:310-320 (1999)). Then, the medium was removed and replaced with fresh DMEM without FBS. After 48 h, cell viability was assayed by MTT assay, as described previously.
molecule,measurement,setting,value
NC(=O)N1c2ccccc2C=Cc2ccccc21 [carbamazepine],Papp at 18 h,[1],10.3 ×10⁻⁶ cm/s
CC(C)NCC(O)COc1cccc2ccccc12 (stereo not shown) [propanolol],Papp at 18 h,[1],11.5 ×10⁻⁶ cm/s
NGF: homodimeric protein from the neurotrophin family; positive control of differentiation and survival,number of differentiated cells,"PC12 cells [2]; plus LY294002 (10 μM), inhibitor of PI3K",6.8±2.7
same,number of differentiated cells,"PC12 cells [2]; plus PD98059 (50 μM), inhibitor of MAPK kinase",2.1±1.9
same,number of differentiated cells,PC12 cells [2]; treatment alone,20.7±7.1
same,number of differentiated cells for each field,PC12 cells [3]; 100 ng/ml together with antibody anti-NGF (1 μg/ml),12.8±6.3
same,number of differentiated cells for each field,"PC12 cells [3]; 100 ng/ml, treatment alone",20.7±7.1
same,number of differentiated cells in a field of 100 cells,PC12 cells [4],16.1±1.9 cells
same,number of differentiated cells,PC12 cells [5]; in combination with anti-TrkA antibody (1:2000),12.8±6.3
same,number of differentiated cells,PC12 cells [5]; treatment alone,20.7±7.1
same,number of differentiated cells,PC12 cells [6],20±7.1
same,protection of retinal ganglion cells (number of RGC vs glaucoma-placebo),[7],significant protection of the ganglion cells
B1,"cell viability, percentage relative to the control without stress",NSC-34 cells,76.50±8.3%
